Where a name gives a salt, the structure may show the parent alone.
target: Recombinant Btk (Homo sapiens (Human), UniProt Q06187); test: BTK kinase assay (TR-FRET); conditions: read-out: IC50 (nM) Btk; 1 hour pre-incubation, ATP at Km
Sequence (Q06187 whole entry): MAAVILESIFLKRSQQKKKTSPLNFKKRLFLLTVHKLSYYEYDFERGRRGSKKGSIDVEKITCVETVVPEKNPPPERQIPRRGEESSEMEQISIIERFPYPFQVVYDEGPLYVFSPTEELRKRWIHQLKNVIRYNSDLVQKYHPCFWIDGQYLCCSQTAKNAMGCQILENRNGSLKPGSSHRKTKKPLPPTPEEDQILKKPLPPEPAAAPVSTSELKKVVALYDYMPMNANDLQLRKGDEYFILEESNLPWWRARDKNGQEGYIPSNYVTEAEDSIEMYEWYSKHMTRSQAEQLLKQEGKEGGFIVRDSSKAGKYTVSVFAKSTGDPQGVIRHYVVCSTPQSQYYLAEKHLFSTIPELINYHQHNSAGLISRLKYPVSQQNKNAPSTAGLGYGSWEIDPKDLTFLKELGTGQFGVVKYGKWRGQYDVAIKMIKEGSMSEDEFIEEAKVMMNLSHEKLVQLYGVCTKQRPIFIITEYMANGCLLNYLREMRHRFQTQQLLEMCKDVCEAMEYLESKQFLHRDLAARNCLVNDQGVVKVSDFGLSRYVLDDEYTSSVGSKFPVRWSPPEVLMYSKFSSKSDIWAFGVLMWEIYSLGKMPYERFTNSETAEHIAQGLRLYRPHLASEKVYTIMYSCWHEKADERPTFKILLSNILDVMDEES

| Structure (SMILES) | IC50 |
| --- | --- |
| C=CC(=O)N1CC(C2CCNc3c(C(N)=O)c(-c4ccc(Oc5ccccc5)c(OC)c4)nn32)C1 (stereo not shown) [Compound 140, 7-(1-acryloylazetidin-3-yl)-2-(3-methoxy-4-phenoxyphenyl)-4,5,6,7-tetrahydropyrazolo[1,5-a]pyrimidine-3-carboxamide formate] | 3000 nM |
| C=CC(=O)N1CC(C2CCNc3c(C(N)=O)c(-c4ccc(Cl)cc4)nn32)C1 (stereo not shown) [Compound 145, 7-(1-acryloylazetidin-3-yl)-2-(4-chlorophenyl)-4,5,6,7-tetrahydropyrazolo[1,5-a]pyrimidine-3-carboxamide] | 72 nM |
| CC=CC(=O)N1CCc2[nH]c3c(C(N)=O)c(-c4ccc(Oc5ccccc5)cc4)nn3c2C1 [Compound 58, 7-(But-2-enoyl)-2-(4-phenoxyphenyl)-5,6,7,8-tetrahydro-4H-pyrazolo [5′,1′:2,3]imidazo[4,5-c]pyridine-3-carboxamide] | 0.43 nM |
| CC(C)(C)OC(=O)N1CCC(C2CCNc3c(C(N)=O)c(-c4ccc(Oc5ccccc5)cc4)nn32)CC1 (stereo not shown) [Compound 25, 7-(1-(Tert-butoxycarbonyl)piperidin-4-yl)-2-(4-phenoxyphenyl)-4,5,6,7-tetrahydropyrazolo[1,5-a]pyrimidine-3-carboxamide] | 3100 nM |
| CNCC1CCNc2c(C(N)=O)c(-c3ccc(Oc4ccccc4)cc3)nn21 (stereo not shown) [Compound 34, 7-((Methylamino)methyl)-2-(4-phenoxyphenyl)-4,5,6,7-tetrahydro pyrazolo[1,5-a]pyrimidine-3-carboxamide] | 1900 nM |
| NC(=O)c1c(-c2ccc(Oc3ccccc3)cc2)nn2c1NCc1ccc(N)cc1-2 [Compound 68, 8-Amino-2-(4-phenoxyphenyl)-4,5-dihydropyrazolo[1,5-a]quinazoline-3-carboxamide] | 190 nM |
| C=CC(=O)N1CC(C2CCNc3c(C(N)=O)c(-c4ccc(OCCc5ccccc5)cc4)nn32)C1 (stereo not shown) [Compound 141, 7-(1-acryloylazetidin-3-yl)-2-(4-phenethoxyphenyl)-4,5,6,7-tetrahydropyrazolo[1,5-a]pyrimidine-3-carboxamide] | 7 nM |
| NC(=O)c1c(-c2ccc(Oc3ccccc3)cc2)nn2c1NC(=O)Cc1cc([N+](=O)[O-])ccc1-2 [Compound 73, 8-Nitro-5-oxo-2-(4-phenoxyphenyl)-5,6-dihydro-4H-benzo[f]pyrazolo[1,5-a][1,3]diazepine-3-carboxamide] | > 10000 nM |
| C=CC(=O)Nc1cc(C2CCNc3c(C(N)=O)c(-c4ccc(Oc5ccccc5)cc4)nn32)ccc1Cl (stereo not shown) [Compound 97, 7-(3-acrylamido-4-chlorophenyl)-2-(4-phenoxyphenyl)-4,5,6,7-tetrahydropyrazolo[1,5-a]pyrimidine-3-carboxamide] | 1.1 nM |
| NC(=O)c1c(-c2ccc(OC3CCOCC3)cc2)nn2c1NCCC2c1ccccc1N (stereo not shown) [Compound 23, 7-(2-Aminophenyl)-2-(4-(tetrahydro-2H-pyran-4-yloxy)phenyl)-4,5,6,7-tetrahydropyrazolo[1,5-a]pyrimidine-3-carboxamide] | 3200 nM |
| C=CC(=O)N1CCC(C2(C)CCNc3c(C(N)=O)c(-c4ccc(Oc5ccccc5)cc4)nn32)CC1 (stereo not shown) [Compound 138, 7-(1-acryloylpiperidin-4-yl)-7-methyl-2-(4-phenoxyphenyl)-4,5,6,7-tetrahydropyrazolo[1,5-a]pyrimidine-3-carboxamide] | 1 nM |
| C=CC(=O)NCC1CCNc2c(C(N)=O)c(-c3cnn(Cc4ccccc4)c3)nn21 (stereo not shown) [Compound 37, 7-(Acrylamidomethyl)-2-(1-benzyl-1H-pyrazol-4-yl)-4,5,6,7-tetrahydropyrazolo[1,5-a]pyrimidine-3-carboxamide] | 640 nM |
| NC(=O)c1c(-c2ccc(OCC3CC3)cc2)nn2c1NCCC2c1ccccc1N (stereo not shown) [Compound 19, 7-(2-Aminophenyl)-2-(4-(cyclopropylmethoxy)phenyl)-4,5,6,7-tetrahydropyrazolo[1,5-a]pyrimidine-3-carboxamide] | 5300 nM |
| C=CC(=O)Nc1ccc2c(c1)c(=O)[nH]c1c(C(N)=O)c(-c3ccc(Oc4ccccc4)cc3)nn12 [Compound 78, 7-Acrylamido-5-oxo-2-(4-phenoxyphenyl)-4,5-dihydropyrazolo[1,5-a]quinazoline-3-carboxamide] | 21 nM |
| NC(=O)c1c(-c2ccc(OCc3ccccc3)cc2)nn2c3c([nH]c12)CCNC3 [Compound 125, 2-(4-(benzyloxy)phenyl)-5,6,7,8-tetrahydro-4H-pyrazolo[5′,1′:2,3]imidazo[4,5-c]pyridine-3-carboxamide formate] | 5000 nM |
| NCC1CCNc2c(C(N)=O)c(-c3ccc(OCC4CC4)cc3)nn21 (stereo not shown) [Compound 112, 7-(aminomethyl)-2-(4-(cyclopropylmethoxy)phenyl)-4,5,6,7-tetrahydropyrazolo[1,5-a]pyrimidine-3-carboxamide] | > 10000 nM |
| C=CC(=O)Nc1ccccc1C1CCNc2c(C(N)=O)c(-c3ccc(Cl)c(Cl)c3)nn21 (stereo not shown) [Compound 156, 7-(2-Acrylamidophenyl)-2-(3,4-dichlorophenyl)-4,5,6,7-tetrahydropyrazolo[1,5-a]pyrimidine-3-carboxamide] | 0.55 nM |

| Structure (SMILES) | IC50 |
| --- | --- |
| N#CN1CCC([C@@H]2CCNc3c(C(N)=O)c(-c4ccc(Oc5ccccc5)cc4)nn32)CC1 [Compound 182, (S)-7-(1-cyanopiperidin-4-yl)-2-(4-phenoxyphenyl)-4,5,6,7-tetrahydropyrazolo[1,5-a]pyrimidine-3-carboxamide] | 124 nM |
| NC(=O)c1c(-c2ccc(Oc3ccccc3)cc2)nn2c1NCCC2c1ccncc1 (stereo not shown) [Compound 100, 2-(4-phenoxyphenyl)-7-(pyridin-4-yl)-4,5,6,7-tetrahydropyrazolo[1,5-a]pyrimidine-3-carboxamide] | 260 nM |
| NC(=O)c1c(-c2ccc(Oc3ccccc3)cc2)nn2c1NCCC2c1cc(N)ccc1Cl (stereo not shown) [Compound 95, 7-(5-amino-2-chlorophenyl)-2-(4-phenoxyphenyl)-4,5,6,7-tetrahydropyrazolo[1,5-a]pyrimidine-3-carboxamide] | 470 nM |
| C=CC(=O)N1CC(C2CCNc3c(C(N)=O)c(-c4ccc(OCc5ccccc5)cc4)nn32)C1 (stereo not shown) [Compound 104, 7-(1-acryloylazetidin-3-yl)-2-(4-(benzyloxy)phenyl)-4,5,6,7-tetrahydropyrazolo[1,5-a]pyrimidine-3-carboxamide] | 2.6 nM |
| C=CC(=O)NCC1CNc2c(C(N)=O)c(-c3ccc(Oc4ccccc4)cc3)nn2C1 (stereo not shown) [Compound 86, 6-(Acrylamidomethyl)-2-(4-phenoxyphenyl)-4,5,6,7-tetrahydropyrazolo[1,5-a]pyrimidine-3-carboxamide] | 2.2 nM |
| NC(=O)c1c(-c2ccc(Oc3ccccc3)cc2)nn2c1NCC[C@H]2C1CCN(C(=O)C#CCN2CCCC2)CC1 [Compound 187, (S)-2-(4-Phenoxyphenyl)-7-(1-(4-(pyrrolidin-1-yl)but-2-ynoyl)piperidin-4-yl)-4,5,6,7-tetrahydropyrazolo[1,5-a]pyrimidine-3-carboxamide] | 2.1 nM |
| CC#CC(=O)N1CCC(C2CCNc3c(C(N)=O)c(-c4ccc(Oc5ccc(F)cc5)cc4)nn32)CC1 (stereo not shown) [Compound 194, 7-(1-(But-2-ynoyl)piperidin-4-yl)-2-(4-(4-fluorophenoxy)phenyl)-4,5,6,7-tetrahydropyrazolo[1,5-a]pyrimidine-3-carboxamide] | 45 nM |
| CN(C)C/C=C/C(=O)N1CCc2c([nH]c3c(C(N)=O)c(-c4ccc(Oc5ccccc5)cc4)nn23)C1 [Compound 64, (E)-6-(4-(Dimethylamino)but-2-enoyl)-2-(4-phenoxyphenyl)-5,6,7,8-tetrahydro-4H-pyrazolo[1′,5′:1,2]imidazo[4,5-c]pyridine-3-carboxamide trifluoroacetate] | 0.17 nM |
| C=CC(=O)Nc1cc(C)ccc1C1CCNc2c(C(N)=O)c(-c3ccc(OCC4CC4)cc3)nn21 (stereo not shown) [Compound 148, 7-(2-Acrylamido-4-methylphenyl)-2-(4-(cyclopropylmethoxy)phenyl)-4,5,6,7-tetrahydropyrazolo[1,5-a]pyrimidine-3-carboxamide] | 5.6 nM |
| N#CCC(=O)N1CCc2[nH]c3c(C(N)=O)c(-c4ccc(Oc5ccccc5)cc4)nn3c2C1 [Compound 56, 7-(2-Cyanoacetyl)-2-(4-phenoxyphenyl)-5,6,7,8-tetrahydro-4H-pyrazolo[5′,1′:2,3]imidazo[4,5-c]pyridine-3-carboxamide] | 110 nM |
| C=CC(=O)Nc1ccccc1C1CCNc2c(C(N)=O)c(-c3cc(OC)c(OC)c(OC)c3)nn21 (stereo not shown) [Compound 167, 7-(2-Acrylamidophenyl)-2-(3,4,5-trimethoxyphenyl)-4,5,6,7-tetrahydropyrazolo[1,5-a]pyrimidine-3-carboxamide] | 2.4 nM |
| NC(=O)c1c(-c2ccc(Oc3ccccc3)cc2)nn2c1NC(=O)Cc1cc(N)ccc1-2 [Compound 74, 8-Amino-5-oxo-2-(4-phenoxyphenyl)-5,6-dihydro-4H-benzo[f]pyrazolo[1,5-a][1,3]diazepine-3-carboxamide] | 240 nM |
| NC(=O)c1c(-c2ccc(Oc3ccccc3)cc2)nn2c1NCCC2c1cccnc1 (stereo not shown) [Compound 101, 2-(4-phenoxyphenyl)-7-(pyridin-3-yl)-4,5,6,7-tetrahydropyrazolo[1,5-a]pyrimidine-3-carboxamide] | 550 nM |
| C=CC(=O)N1CC(C2CCNc3c(C(N)=O)c(-c4ccc(Oc5ccccc5C#N)cc4)nn32)C1 (stereo not shown) [Compound 135, 7-(1-acryloylazetidin-3-yl)-2-(4-(2-cyanophenoxy)phenyl)-4,5,6,7-tetrahydropyrazolo[1,5-a]pyrimidine-3-carboxamide] | 0.38 nM |
| NC(=O)c1c(-c2ccc(Oc3ccccc3)cc2)nn2c1NCC(N)C2 (stereo not shown) [Compound 84, 6-Amino-2-(4-phenoxyphenyl)-4,5,6,7-tetrahydropyrazolo[1,5-a]pyrimidine-3-carboxamide] | 2900 nM |
| NC(=O)c1c(-c2ccc(Oc3ccccc3)cc2)nn2c1NCCC2c1ccc(N)cc1 (stereo not shown) [Compound 98, 7-(4-aminophenyl)-2-(4-phenoxyphenyl)-4,5,6,7-tetrahydropyrazolo[1,5-a]pyrimidine-3-carboxamide] | 77 nM |
| NC(=O)c1c(-c2ccc(Oc3ccccc3)cc2)nn2c1NCCC2C1CCN(C(=O)/C=C/CN2CCCCC2)CC1 (stereo not shown) [Compound 170, (E)-2-(4-Phenoxyphenyl)-7-(1-(4-(piperidin-1-yl)but-2-enoyl)piperidin-4-yl)-4,5,6,7-tetrahydropyrazolo[1,5-a]pyrimidine-3-carboxamide] | 3.8 nM |
